Here are results for two molecules from paper PMC4914996, “Elimination of a ligand gating site generates a supersensitive olfactory receptor” (Scientific Reports, 2016).

Changes are numbered by the printed parent chain. Read-outs that look alike come from different tables or passages of the source.

What all share (assay): Fluo-4 Ca2+ influx through cAMP-gated CNG channel in stable HEK293 line
Test [1] addresses T1, TAAR13c (Danio rerio, UniProt Q5QNP2, W296F).
T1 sequence (Q5QNP2 1-341 W296F): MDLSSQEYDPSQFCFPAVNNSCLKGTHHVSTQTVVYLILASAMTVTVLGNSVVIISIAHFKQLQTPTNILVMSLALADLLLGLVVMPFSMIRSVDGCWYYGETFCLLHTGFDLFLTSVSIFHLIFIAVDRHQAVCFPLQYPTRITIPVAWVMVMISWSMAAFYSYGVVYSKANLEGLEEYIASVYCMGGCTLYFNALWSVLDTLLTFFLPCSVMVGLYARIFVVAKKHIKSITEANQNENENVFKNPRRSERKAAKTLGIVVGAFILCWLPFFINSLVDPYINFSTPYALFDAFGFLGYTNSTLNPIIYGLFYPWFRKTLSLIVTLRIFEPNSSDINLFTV
It counts as cell-based, Homo sapiens. From the text: (§1) Fluo-4 Ca2+ influx through cAMP-gated CNG channel in stable HEK293 line on TAAR13c

Test [2] addresses T2, TAAR13c (Danio rerio, UniProt Q5QNP2, D78E).
T2 sequence (Q5QNP2 1-341 D78E): T1 sequence (Q5QNP2 1-341 W296F) with D78E, F296W
It counts as cell-based.
Source text: as §1

The target of test [3] is T3, TAAR13c (Danio rerio, UniProt Q5QNP2, D279N).
T3 sequence (Q5QNP2 1-341 D279N): T1 sequence (Q5QNP2 1-341 W296F) with D279N, F296W
The class given is cell-based.
Source text: as §1

The target of test [4] is T4, TAAR13c (Danio rerio, UniProt Q5QNP2, W296Y).
T4 sequence (Q5QNP2 1-341 W296Y): T1 sequence (Q5QNP2 1-341 W296F) with F296Y
It counts as cell-based.
Source text: as §1

The target of test [5] is T5, TAAR13c (Danio rerio, UniProt Q5QNP2).
T5 sequence (Q5QNP2 1-341): T1 sequence (Q5QNP2 1-341 W296F) with F296W
The class given is cell-based.
Source text: as §1

Test [6] addresses T6, TAAR13c (Danio rerio, UniProt Q5QNP2, W296G).
T6 sequence (Q5QNP2 1-341 W296G): T1 sequence (Q5QNP2 1-341 W296F) with F296G
It counts as cell-based. The settings on record: read-out: EC50 (μM, mean±SEM) / cad.
Source text: as §1

Test [7] concerns the target T7, TAAR13c (Danio rerio, UniProt Q5QNP2, D279E).
T7 sequence (Q5QNP2 1-341 D279E): T1 sequence (Q5QNP2 1-341 W296F) with D279E, F296W
It counts as cell-based.
Source text: as §1

The target in test [8] is T8, TAAR13c (Danio rerio, UniProt Q5QNP2, D279A).
T8 sequence (Q5QNP2 1-341 D279A): T1 sequence (Q5QNP2 1-341 W296F) with D279A, F296W
The class given is cell-based.
Source text: as §1

[9] abbreviates: read-out: EC50 (μM, mean±SEM) / cad.
Setting [10] is: read-out: EC50 (μM, mean±SEM) / put.

Regarding `NCCCCCN` [cadaverine], the EC50 in test [1] (setting [9]) was found to be 42 ± 6 µM; in test [2] (setting [9]) it was 64 ± 28 µM; in test [3] (setting [9]) it was 1.1 ± 0.8 µM; in test [4] (setting [9]) it was 28 ± 8 µM; in test [5] (setting [9]), 15.2 ± 2.2 µM; in test [6], 55 ± 48 µM. Also, the EC50 in test [7] (setting [9]) turned out to be 0.72 ± 0.24 µM; in test [8] (setting [9]), 2.1 ± 1 µM.

As for `NCCCCN` [putrescine], the EC50 in test [1] (setting [10]) was more than 1000 µM; in test [2] (setting [10]) it was more than 1000 µM; in test [3] (setting [10]), 7.3 ± 3.6 µM; in test [4] (setting [10]) it was more than 1000 µM; in test [5] (setting [10]), more than 1000 µM; in test [7] (setting [10]), 10 ± 4 µM. Moreover, the EC50 in test [8] (setting [10]) turned out to be 31 ± 13 µM.
